# Counter-ions that a name gives are not always drawn.
# Legend:
# [1] = molecular target: T1, human adenosine A2A receptor (Homo sapiens, UniProt P29274); experiment: Human adenosine A2A receptor [3H]-SCH-58261 binding assay (SPA); settings: recombinant receptor in CHO cell membranes; [3H]-SCH-58261 1 nM; Ki by Cheng-Prussoff; read-out: hA2 (pKi) (converted)
# T1 construct: expressed in transfected cells; host or cells: CHO cells, semliki forest virus expression system; membrane preparation
# Procedure: Human Adenosine A2A Receptor
# (§1) The human adenosine A2A receptor was recombinantly expressed in Chinese hamster ovary (CHO) cells using the semliki forest virus expression system. Cells were harvested, washed twice by centrifugation, homogenized and again washed by centrifugation. The final washed membrane pellet was suspended in a Tris (50 mM) buffer containing 120 mM NaCl, 5 mM KCl, 2 mM CaCl2 and 10 mM MgCl2 (pH 7.4) (buffer A). The [^3H]-SCH-58261 (Dionisotti et al., 1997, Br J Pharmacol 121, 353; 1 nM) binding assay was carried out in 96-well plates in the presence of 2.5 μg of membrane protein, 0.5 mg of Ysi-poly-1-lysine SPA beads and 0.1 U adenosine deaminase in a final volume of 200 μl of buffer A. Non-specific binding was defined using xanthine amine congener (XAC; 2 μM). Compounds were tested at 10 concentrations from 10 μM-0.3 nM. All assays were conducted in duplic and repeated at least two times. Assay plates were incubated for hour at room temperature before centrifugation and then bound ligand determined using a Packard Topcount scintillation counter. IC50 values were calculated using a non-linear curve fitting program and Ki values calculated using the Cheng-Prussoff equation.
# [2] = molecular target: T2, human adenosine A1 receptor (Homo sapiens, UniProt P30542); experiment: Human adenosine A1 receptor [3H]-DPCPX binding assay (SPA); settings: recombinant receptor in CHO cell membranes; [3H]-DPCPX 0.6 nM; Ki by Cheng-Prussoff; read-out: hA1 (pKi) (converted)
# T2 construct: expressed in transfected cells; host or cells: CHO cells, semliki forest virus expression system; membrane preparation
# T2 sequence (P30542 1-326): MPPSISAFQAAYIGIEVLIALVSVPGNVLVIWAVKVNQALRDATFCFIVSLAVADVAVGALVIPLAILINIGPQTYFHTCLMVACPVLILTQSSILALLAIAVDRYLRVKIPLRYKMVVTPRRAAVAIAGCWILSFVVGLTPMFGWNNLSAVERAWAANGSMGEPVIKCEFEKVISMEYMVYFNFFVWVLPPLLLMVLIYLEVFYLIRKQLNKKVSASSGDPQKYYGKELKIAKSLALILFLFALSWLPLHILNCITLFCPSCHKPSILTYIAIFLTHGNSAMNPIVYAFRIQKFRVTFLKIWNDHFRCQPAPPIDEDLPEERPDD
# Procedure: Human Adenosine A1 receptor
# as §1, with “human adenosine A1 receptor was” for “human adenosine A2A receptor was”, “A). The [^3H]-DPCPX (([propyl-^3H]8-cyclopentyl-1,3-dipropyxanthine); 0.6 nM) binding” for “A). The [^3H]-SCH-58261 (Dionisotti et al., 1997, Br J Pharmacol 121, 353; 1 nM) binding”, “from 10 μM–0.3 nM. All” for “from 10 μM-0.3 nM. All”, “conducted in duplicate and repeated” for “conducted in duplic and repeated”, “incubated for 1 hour at” for “incubated for hour at”
# T1 sequence (P29274 whole entry): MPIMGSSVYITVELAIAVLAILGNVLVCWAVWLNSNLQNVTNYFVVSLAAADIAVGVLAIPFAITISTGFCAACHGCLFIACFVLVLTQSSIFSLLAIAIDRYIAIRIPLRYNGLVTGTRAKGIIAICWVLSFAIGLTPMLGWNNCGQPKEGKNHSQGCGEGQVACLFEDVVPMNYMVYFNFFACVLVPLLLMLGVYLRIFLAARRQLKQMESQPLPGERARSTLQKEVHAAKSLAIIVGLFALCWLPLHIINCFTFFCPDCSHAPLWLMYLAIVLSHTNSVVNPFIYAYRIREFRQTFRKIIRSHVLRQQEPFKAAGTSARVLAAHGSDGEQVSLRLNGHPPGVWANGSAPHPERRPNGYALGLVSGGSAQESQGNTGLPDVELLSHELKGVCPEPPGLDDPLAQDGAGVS
SMILES,melting point,Ki [1],Ki [2]
"COc1ccc(N2CCOCC2)c2sc(-c3nc4c([nH]3)CCN(C(=O)C3CC3)CC4)nc12 [Example 30, Cyclopropyl-[2-(4-methoxy-7-morpholin-4-yl-benzothiazol-2-yl)-4,5,7,8-tetrahydro-1H-imidazo[4,5-d]azepin-6-yl]-methanone]",,0.00158 µM,1.26 µM
"COc1ccc(N2CCOCC2)c2sc(-c3nc4c([nH]3)CCN(C(=O)c3ccccc3C)CC4)nc12 [Example 28, [2-(4-Methoxy-7-morpholin-4-yl-benzothiazol-2-yl)-4,5,7,8-tetrahydro-1H-imidazo[4,5-d]azepin-6-yl]-o-tolyl-methanone]",194 to 196 °C,0.00126 µM,1.58 µM
"COc1ccc(C2CCOCC2)c2sc(-c3ncc[nH]3)nc12 [Example 45, 2-(1H-Imidazol-2-yl)-4-methoxy-7-(tetrahydro-pyran-4-yl)-benzothiazole]",220 to 224 °C,,
"COc1ccc(N2CCOCC2)c2sc(-c3nc4ccc(N(C)CC5CCOCC5)nc4[nH]3)nc12 [Example 14, [2-(4-Methoxy-7-morpholin-4-yl-benzothiazol-2-yl)-3H-imidazo[4,5-b]pyridin-5-yl]-methyl-(tetrahydro-pyran-4-ylmethyl)-amine]",,0.00316 µM,2.51 µM
"COCn1c(-c2nc3c(OC)ccc(N4CCOCC4)c3s2)nc2ccc(Cl)nc21 [Example 7, 5-Chloro-3-methoxymethyl-2-(4-methoxy-7-morpholin-4-yl-benzothiazol-2-yl)-3H-imidazo[4,5-b]pyridine]",167 to 170 °C,,
"COc1ccc(N2CCOCC2)c2sc(-c3nc4ccc(N5CCOCC5)nc4[nH]3)nc12 [Example 9, 2-(4-Methoxy-7-morpholin-4-yl-benzothiazol-2-yl)-5-morpholin-4-yl-3H-imidazo[4,5-b]pyridine]",,0.00251 µM,
"COc1ccc(-c2ccccc2)c2sc(-c3ncc[nH]3)nc12 [Example 4, 2-(1H-Imidazol-2-yl)-4-methoxy-7-phenyl-benzothiazole]",205 to 206 °C,0.00501 µM,0.2 µM
"COc1ccc(N2CCOCC2)c2sc(-c3nc4c([nH]3)CCN(C(=O)OC(C)(C)C)CC4)nc12 [Example 24, 2-(4-Methoxy-7-morpholin-4-yl-benzothiazol-2-yl)-4,5,7,8-tetrahydro-1H-imidazo[4,5-d]azepine-6-carboxylic acid tert-butyl ester]",142 to 144 °C,,
"COc1ccc(N2CCOCC2)c2sc(-c3nc4c([nH]3)CCN(C(=O)c3ccc(F)cc3)CC4)nc12 [Example 26, (4-Fluoro-phenyl)-[2-(4-methoxy-7-morpholin-4-yl-benzothiazol-2-yl)-4,5,7,8-tetrahydro-1H-imidazo[4,5-d]azepin-6-yl]-methanone]",205 to 207 °C,0.001 µM,0.631 µM
"COc1ccc(N2CCOCC2)c2sc(-c3nc4c([nH]3)CCN(CC(N)=O)CC4)nc12 [Example 46, 2-[2-(4-Methoxy-7-morpholin-4-yl-benzothiazol-2-yl)-4,5,7,8-tetrahydro-1H-imidazo[4,5-d]azepin-6-yl]-acetamide]",299 to 302 °C,,
"COc1ccc(N2CCOCC2)c2sc(-c3nc4c([nH]3)CCN(C(C)=O)CC4)nc12 [Example 27, 1-[2-(4-Methoxy-7-morpholin-4-yl-benzothiazol-2-yl)-4,5,7,8-tetrahydro-1H-imidazo[4,5-d]azepin-6-yl]-ethanone]",195 to 197 °C,,

# Now from value to molecule:
melting point,Ki [1],Ki [2],SMILES
155 to 157 °C,,,"COc1ccc(N2CCOCC2)c2sc(-c3nc4c([nH]3)CCN(C(C)=O)C4)nc12 [Example 39, 1-[2-(4-Methoxy-7-morpholin-4-yl-benzothiazol-2-yl)-1,4,6,7-tetrahydro-imidazo[4,5-c]pyridin-5-yl]-ethanone]"
,0.00251 µM,0.794 µM,"COc1ccc(N2CCOCC2)c2sc(-c3nc4c([nH]3)CCCC4)nc12 [Example 22, 4-Methoxy-7-morpholin-4-yl-2-(4,5,6,7-tetrahydro-1H-benzoimidazol-2-yl)-benzothiazole]"
165 °C,,,"COc1ccc(N2CCOCC2)c2sc(-c3nc(-c4cccs4)c[nH]3)nc12 (as salt: ammonium) [Example 18, 4-Methoxy-7-morpholin-4-yl-2-(4-thiophen-2-yl-1H-imidazol-2-yl)-benzothiazole]"
,0.0126 µM,1 µM,"COc1ccc(N2CCOCC2)c2sc(-c3ncc[nH]3)nc12 [Example 1, 2-(1H-Imidazol-2-yl)-4-methoxy-7-morpholin-4-yl-benzothiazole]"
226 to 233 °C,,,"COc1ccc(N2CCOCC2)c2sc(-c3nc(-c4ccccc4)c[nH]3)nc12 [Example 15, 4-Methoxy-7-morpholin-4-yl-2-(4-phenyl-1H-imidazol-2-yl)-benzothiazole]"
,0.00316 µM,,"COc1ccc(N2CCOCC2)c2sc(-c3nc4ccc(Cl)nc4[nH]3)nc12 [Example 6, 5-Chloro-2-(4-methoxy-7-morpholin-4-yl-benzothiazol-2-yl)-3H-imidazo[4,5-b]pyridine]"
235 to 237 °C,,,"COc1ccc(N2CCOCC2)c2sc(-c3nc(-c4ccc5c(c4)OCCO5)c[nH]3)nc12 [Example 16, 2-[4-(2,3-Dihydro-benzo[1,4]dioxin-6-yl)-1H-imidazol-2-yl]-4-methoxy-7-morpholin-4-yl-benzothiazole]"
203 to 204 °C,0.00126 µM,0.398 µM,"COc1ccc(N2CCOCC2)c2sc(-c3nc4c([nH]3)COCC4)nc12 [Example 23, 2-(4-Methoxy-7-morpholin-4-yl-benzothiazol-2-yl)-3,4,6,7-tetrahydro-pyrano[3,4-d]imidazole]"
268 to 271 °C,,,COc1ccc(N2CCOCC2)c2sc(-c3nc4c([nH]3)CCNC4)nc12.Cl
170 °C,,,"COc1ccc(N2CCOCC2)c2sc(-c3nc(-c4ccsc4)c[nH]3)nc12 (as salt: ammonium) [Example 19, 4-Methoxy-7-morpholin-4-yl-2-(4-thiophen-3-yl-1H-imidazol-2-yl)-benzothiazole]"
161 to 162 °C,,,"COc1ccc(N2CCOCC2)c2sc(-c3ncc(-c4csc5ccccc45)[nH]3)nc12 [Example 17, 2-(5-Benzo[b]thiophen-3-yl-1H-imidazol-2-yl)-4-methoxy-7-morpholin-4-yl-benzothiazole]"
165 °C,,,"COc1ccc(N2CCOCC2)c2sc(-c3nc4c([nH]3)CCCC4)nc12 (as salt: ammonium) [Example 22, 4-Methoxy-7-morpholin-4-yl-2-(4,5,6,7-tetrahydro-1H-benzoimidazol-2-yl)-benzothiazole]"
213 to 215 °C,0.0501 µM,,"COc1ccc(N2CCOCC2)c2sc(-c3ncc(-c4sc5ccccc5c4C)[nH]3)nc12 [Example 20, 4-Methoxy-2-[5-(3-methyl-benzo[b]thiophen-2-yl)-1H-imidazol-2-yl]-7-morpholin-4-yl-benzothiazole]"
165 °C,,,"COc1ccc(N2CCOCC2)c2sc(-c3nc(Cc4cccs4)c[nH]3)nc12 (as salt: ammonium) [Example 21, 4-Methoxy-7-morpholin-4-yl-2-(4-thiophen-2-ylmethyl-1H-imidazol-2-yl)-benzothiazole]"
267 to 269 °C,,,COc1ccc(N2CCOCC2)c2sc(-c3nc4c([nH]3)CCNCC4)nc12.Cl
284 to 286 °C,0.000501 µM,0.158 µM,"COc1ccc(N2CCOCC2)c2sc(-c3nc4ccccc4[nH]3)nc12 [Example 2, 2-(1H-Benzoimidazol-2-yl)-4-methoxy-7-morpholin-4-yl-benzothiazole]"
283 to 285 °C,0.1 µM,,"COc1ccc(N2CCOCC2)c2sc(-c3nc4ccccc4n3C)nc12 [Example 3, 4-Methoxy-2-(1-methyl-1H-benzoimidazol-2-yl)-7-morpholin-4-yl-benzothiazole]"

# — patent US7122545B2, “Imidazo-benzothiazoles” (Hoffmann-La Roche Inc., priority 2003, dated 2006)
